One data set deals with 5xFAD transgenic mice. Description: Novel Object Recognition Test in 5xFAD mice. Type of data set: in vivo. Conditions: 15 mg/kg i.p. for 20 days, testing trial 24 h after familiarization. The method, then:
All animal procedures were approved by the Animal Care and Use Committee of IPAC RAS. For in vivo studies, 11-month-old male mice of the 5xFAD line (Tg(APPSwFlLon,PSEN1*M146L*L286V) 6799Vas/J) were used. The animals were housed in cages with free access to water and food in a room with a 12 h/12 h light–dark cycle, at a temperature of 23 ± 1 °C and humidity of 50 ± 5%. Before the series of experiments, animals were randomly divided into four groups (n = 8 per group): (1) wild-type group (C57BL6/j mouse line); (2) 5xFAD group; (3) 5xFAD + 15 group; and (4) 5xFAD + 25 group.
Both compounds 15 and 25 were dissolved in saline solution and DMSO (10%) immediately before use and intraperitoneally administered to animals for 20 days at a dose of 15 mg/kg body weight for experiments. In the control group, the vehicle solution (saline and DMSO (10%), intraperitoneal) was administered with the same time schedule.
The Novel Object Recognition Test assesses a mouse’s ability to remember if it has previously encountered an object or not. The same box that had been used in the open field test was used for the Novel Object Recognition Test. Mice were habituated to the box one day before the test, during the open field test. […] All trials were videotaped and analyzed with a computer-operated EthoVision XT system (Noldus, Wageningen, the Netherlands). […]

In another data set the test system is T1, β-amyloid 1–42.
T1 construct: fragments Aβ1–40 and Aβ1–42
Description: β-amyloid 1–42 aggregation, Thioflavin T fluorescence. Type of data set: biochemical. Conditions: 100 μM, 72 h incubation. Here is the method: The effect of the studied compounds on the aggregation of β-amyloid (1–40/1–42) was analyzed using the method of recording Thioflavin T fluorescence (10 µM) for 72 h at 37 °C. The fluorescence signal was measured using a multifunctional flatbed analyzer, the Cytation ™ 3 (BioTek Instruments, Inc., Winooski, VT, USA), at λex = 450 nm, λem = 480 nm.
The effect of hydroxamic acids on the stage of aggregation of the pathological β-amyloid peptide was investigated for 72 h using two model systems—fragments Aβ1–40 and Aβ1–42. The fluorophore Thioflavin T was used as an indicator of the ongoing fibrillation process, the interaction of which with proteins in the state of amyloid fibrils leads to an increase in the fluorescence signal.

The nature of data set [1]: Stability in rat blood plasma, LC–MS/MS. Type of data set: in vitro ADME. Particulars: 1000 ng/mL spike. The method, then:
EDTA-stabilized rat blood plasma was used in the study. The spikes were prepared by adding 100 µL of the solution of a compound to 900 µL of plasma, followed by continuous shaking. A 100 µL aliquot of a sample was taken and mixed with 900 µL of MeOH, shaken for 15 min, and centrifuged. Then, 100 µLc of the supernatant was transferred to a vial insert and analyzed.
HPLC–MS/MS analyses were performed using a Shimadzu LC-20AD Prominence chromatograph equipped with a SIL-20AC cooled autosampler and a gradient pump. A column filled with a reversed-phase ProntoSil 120-AQ C18 sorbent (Econova, Novosibirsk) was used. Water with the addition of 0.1% HCOOH was used as mobile phase A, and methanol containing 0.1% HCOOH was used as mobile phase B. The gradient was as follows: 0 min—5% B; 1 min—5% B; 2 min—95% B; 5 min—100% B; the flow rate was 300 μL/min; the injection volume was 10 μL. The column was then equilibrated for the following analysis. […]
To study the stability of the compounds, their solutions (spikes) in rat blood plasma were prepared with a concentration of 1000 ng/mL. […] Aliquots of the spike with a volume of 100 μL were taken after 5, 15, 30, 60, 120, 180, and 270 min, after which the sample was mixed with MeOH, shaken for 10 min, then centrifuged and analyzed with LC–MS/MS.

SMILES strings stand for the structures. Bounds are passed on as bounds.

One may read the half-life as how long it takes for the measured level to halve.

`O=C(CCCCCCC(=O)NC1C2CC3CC(C2)CC1C3)NO` (stereo not drawn) [compound 15, N^1-(Adamant-2-yl)-N^8-Hydroxyoctanediamide]: the “Novel object preference (episodic memory)” value with 5xFAD transgenic mice is “significantly showed a strong preference and spent more time studying a new object”. Moreover, the “Effect on β-amyloid 1–42 aggregation” value in the data set on β-amyloid 1–42 was “noticeable fibrillation inhibition”. Also, in data set [1] (rat, EDTA-stabilized rat blood plasma, estimated from the graph), the half-life at 1000 ng/mL was 1 to 1.17 h.
As for `O=C(/C=C/c1ccc(C(=O)NO)cc1)NC1C2CC3CC(C2)CC1C3` (stereo not drawn) [compound 25, 4-((E)-3-((-Adamantan-2-yl)amino)-3-Oxoprop-1-en-1-yl)-N-Hydroxybenzamide], the “Novel object preference (episodic memory)” value with 5xFAD transgenic mice is listed as “began to show memory impairment when presented with a new object”. For the same molecule, in the data set on β-amyloid 1–42, the “Effect on β-amyloid 1–42 aggregation” value is “noticeable fibrillation inhibition”. Besides, in data set [1], the “Time stable in rat blood plasma” value is at least 4.5 h.

The values above are taken from article PMC8623418, “Novel Multitarget Hydroxamic Acids with a Natural Origin CAP Group against Alzheimer’s Disease: Synthesis, Docking and Biological Evaluation” (Pharmaceutics, 2021).
